Experimental data taken from ChEMBL document CHEMBL5543144, “Discovery of a Novel Potent Tetrazole Antifungal Candidate with High Selectivity and Broad Spectrum” (J Med Chem, 2024).
Converted amounts (≈) assume the structure as drawn. Each block holds one compound with its values, some of them ahead of it. The source made the active and inactive calls. The rule behind the calls is not given here.

Experiments:
Candida albicans [1] = assay: Antifungal activity against Candida albicans SC5314 assessed as inhibition of fungal growth incubated for 24 hrs by CLSI protocol based microbroth dilution method; format: functional
Candida parapsilosis = assay: Antifungal activity against Candida parapsilosis 22019 assessed as inhibition of fungal growth incubated for 24 hrs by CLSI protocol based microbroth dilution method; format: functional; settings: Lodderomyces parapsilosis
Candida tropicalis = assay: Antifungal activity against Candida tropicalis 2718 assessed as inhibition of fungal growth incubated for 24 hrs by CLSI protocol based microbroth dilution method; format: functional
Pichia kudriavzevii = assay: Antifungal activity against Candida krusei 4946 assessed as inhibition of fungal growth incubated for 24 hrs by CLSI protocol based microbroth dilution method; format: functional
Nakaseomyces glabratus = assay: Antifungal activity against Candida glabrata 537 assessed as inhibition of fungal growth incubated for 48 hrs by CLSI protocol based microbroth dilution method; format: functional
Cryptococcus neoformans [2] = assay: Antifungal activity against Cryptococcus neoformans H99 assessed as inhibition of fungal growth incubated for 72 hrs by CLSI protocol based microbroth dilution method; format: functional
Aspergillus fumigatus = assay: Antifungal activity against Aspergillus fumigatus 7544 assessed as inhibition of fungal growth incubated for 48 hrs by CLSI protocol based microbroth dilution method; format: functional
[Candida] auris [3] = Antifungal activity against fluconazole resistant Candida auris 887 assessed as inhibition of fungal growth incubated for 48 hrs by CLSI protocol based microbroth dilution method; format: functional; settings: Candidozyma auris
[Candida] auris [4] = Antifungal activity against fluconazole resistant Candida auris 888 assessed as inhibition of fungal growth incubated for 48 hrs by CLSI protocol based microbroth dilution method; format: functional; settings: Candidozyma auris
[Candida] auris [5] = Antifungal activity against fluconazole resistant Candida auris D12 assessed as inhibition of fungal growth incubated for 48 hrs by CLSI protocol based microbroth dilution method; format: functional; settings: Candidozyma auris
[Candida] auris [6] = Antifungal activity against fluconazole resistant Candida auris BS12372 assessed as inhibition of fungal growth incubated for 48 hrs by CLSI protocol based microbroth dilution method; format: functional; settings: Candidozyma auris
[Candida] auris [7] = Antifungal activity against fluconazole resistant Candida auris 789 assessed as inhibition of fungal growth incubated for 48 hrs by CLSI protocol based microbroth dilution method; format: functional; settings: Candidozyma auris
[Candida] auris [8] = Antifungal activity against fluconazole resistant Candida auris 791 assessed as inhibition of fungal growth incubated for 48 hrs by CLSI protocol based microbroth dilution method; format: functional; settings: Candidozyma auris
Candida albicans [9] = assay: Antifungal activity against Candida albicans SC5314 assessed as inhibition of fungal growth at 0.0156 ug/ml incubated for 24 hrs by plate reader analysis; format: functional, organism-based; settings: dose 0.0156 µg/ml
Cryptococcus neoformans [10] = assay: Antifungal activity against Cryptococcus neoformans H99 assessed as inhibition of fungal growth at 0.125 ug/ml incubated for 48 hrs by plate reader analysis; format: functional, organism-based; settings: dose 0.125 µg/ml

SMILES: C[C@@H](n1ncc2cn(-c3ccc(F)c(F)c3)nc2c1=O)[C@](O)(Cn1cncn1)c1ccc(F)cc1F
- MIC50 (Candida albicans [1]): 0.5 µg/mL (≈ 1 µM)
- MIC50 (Candida parapsilosis): 1 µg/mL (≈ 2 µM)
- MIC50 (Candida tropicalis): 0.25 µg/mL (≈ 0.501 µM)
- MIC50 (Pichia kudriavzevii): > 64 µg/mL
- MIC50 (Nakaseomyces glabratus): 1 µg/mL (≈ 2 µM)
- MIC50 (Cryptococcus neoformans [2]): > 64 µg/mL
- MIC50 (Aspergillus fumigatus): > 64 µg/mL

SMILES: C[C@@H](n1ncc2cn(-c3ccccc3)nc2c1=O)[C@](O)(Cn1cncn1)c1ccc(F)cc1F
- MIC50 (Candida albicans [1]): 0.5 µg/mL (≈ 1.08 µM)
- MIC50 (Candida parapsilosis): 1 µg/mL (≈ 2.16 µM)
- MIC50 (Candida tropicalis): 0.5 µg/mL (≈ 1.08 µM)
- MIC50 (Pichia kudriavzevii): > 64 µg/mL
- MIC50 (Nakaseomyces glabratus): 1 µg/mL (≈ 2.16 µM)
- MIC50 (Cryptococcus neoformans [2]): > 64 µg/mL
- MIC50 (Aspergillus fumigatus): > 64 µg/mL

SMILES: CC[C@@H]([C@H](C)O)n1ncn(-c2ccc(N3CCN(c4ccc(OC[C@@H]5CO[C@@](Cn6cncn6)(c6ccc(F)cc6F)C5)cc4)CC3)cc2)c1=O [POSACONAZOLE]
- MIC50 (Candida albicans [1]): 0.016 µg/mL (≈ 0.0228 µM)
- MIC50 (Candida parapsilosis): 0.25 µg/mL (≈ 0.357 µM)
- MIC50 (Candida tropicalis): < 0.008 µg/mL
- MIC50 (Pichia kudriavzevii): 0.5 µg/mL (≈ 0.713 µM)
- MIC50 (Nakaseomyces glabratus): 0.5 µg/mL (≈ 0.713 µM)
- MIC50 (Cryptococcus neoformans [2]): 0.063 µg/mL (≈ 0.0899 µM)
- MIC50 (Aspergillus fumigatus): 0.25 µg/mL (≈ 0.357 µM)
- MIC50 ([Candida] auris [3]): 16 µg/mL (≈ 22.8 µM)
- MIC50 ([Candida] auris [4]): 8 µg/mL (≈ 11.4 µM)
- MIC50 ([Candida] auris [5]): 0.5 µg/mL (≈ 0.713 µM)
- MIC50 ([Candida] auris [6]): 1 µg/mL (≈ 1.43 µM)
- MIC50 ([Candida] auris [7]): 16 µg/mL (≈ 22.8 µM)
- MIC50 ([Candida] auris [8]): 2 µg/mL (≈ 2.85 µM)

SMILES: C[C@@H](n1ncc2cc(Cl)ccc2c1=O)[C@](O)(Cn1cncn1)c1ccc(F)cc1F
- MIC50 (Candida albicans [1]): < 0.008 µg/mL
- MIC50 (Candida parapsilosis): < 0.008 µg/mL
- MIC50 (Candida tropicalis): < 0.008 µg/mL
- MIC50 (Pichia kudriavzevii): 0.125 µg/mL (≈ 0.289 µM)
- MIC50 (Nakaseomyces glabratus): < 0.008 µg/mL
- MIC50 (Cryptococcus neoformans [2]): < 0.008 µg/mL
- MIC50 (Aspergillus fumigatus): 0.25 µg/mL (≈ 0.579 µM)
- MIC50 ([Candida] auris [3]): 1 µg/mL (≈ 2.32 µM)
- MIC50 ([Candida] auris [4]): 1 µg/mL (≈ 2.32 µM)
- MIC50 ([Candida] auris [5]): 0.5 µg/mL (≈ 1.16 µM)
- MIC50 ([Candida] auris [6]): 0.5 µg/mL (≈ 1.16 µM)
- MIC50 ([Candida] auris [7]): 2 µg/mL (≈ 4.63 µM)
- MIC50 ([Candida] auris [8]): 1 µg/mL (≈ 2.32 µM)
- Activity (Candida albicans [9]): Active
- Activity (Cryptococcus neoformans [10]): Active

SMILES: C[C@@H](n1ncc2cn(-c3ccc(Cl)cc3)nc2c1=O)[C@](O)(Cn1cncn1)c1ccc(F)cc1F
- MIC50 (Candida albicans [1]): 0.5 µg/mL (≈ 1 µM)
- MIC50 (Candida parapsilosis): 1 µg/mL (≈ 2.01 µM)
- MIC50 (Candida tropicalis): 1 µg/mL (≈ 2.01 µM)
- MIC50 (Pichia kudriavzevii): > 64 µg/mL
- MIC50 (Nakaseomyces glabratus): 1 µg/mL (≈ 2.01 µM)
- MIC50 (Cryptococcus neoformans [2]): 4 µg/mL (≈ 8.03 µM)
- MIC50 (Aspergillus fumigatus): > 64 µg/mL

SMILES: C[C@@H](c1ncncc1F)[C@](O)(Cn1cncn1)c1ccc(F)cc1F [VORICONAZOLE]
- MIC50 (Candida albicans [1]): < 0.008 µg/mL
- MIC50 (Candida parapsilosis): 0.016 µg/mL (≈ 0.0458 µM)
- MIC50 (Candida tropicalis): < 0.008 µg/mL
- MIC50 (Pichia kudriavzevii): 0.063 µg/mL (≈ 0.18 µM)
- MIC50 (Nakaseomyces glabratus): < 0.008 µg/mL
- MIC50 (Cryptococcus neoformans [2]): 0.063 µg/mL (≈ 0.18 µM)
- MIC50 (Aspergillus fumigatus): 0.25 µg/mL (≈ 0.716 µM)
- MIC50 ([Candida] auris [3]): 2 µg/mL (≈ 5.73 µM)
- MIC50 ([Candida] auris [4]): 2 µg/mL (≈ 5.73 µM)
- MIC50 ([Candida] auris [5]): 2 µg/mL (≈ 5.73 µM)
- MIC50 ([Candida] auris [6]): 2 µg/mL (≈ 5.73 µM)
- MIC50 ([Candida] auris [7]): 2 µg/mL (≈ 5.73 µM)
- MIC50 ([Candida] auris [8]): 4 µg/mL (≈ 11.5 µM)

SMILES: C[C@@H](n1ncc2cn(-c3ccc(OC(F)(F)F)cc3)nc2c1=O)[C@](O)(Cn1cncn1)c1ccc(F)cc1F
- MIC50 (Candida albicans [1]): 0.5 µg/mL (≈ 0.913 µM)
- MIC50 (Candida parapsilosis): 0.5 µg/mL (≈ 0.913 µM)
- MIC50 (Candida tropicalis): 0.5 µg/mL (≈ 0.913 µM)
- MIC50 (Pichia kudriavzevii): > 64 µg/mL
- MIC50 (Nakaseomyces glabratus): 1 µg/mL (≈ 1.83 µM)
- MIC50 (Cryptococcus neoformans [2]): > 64 µg/mL
- MIC50 (Aspergillus fumigatus): > 64 µg/mL

Continued, values first:

- MIC50 (Candida albicans [1]): 0.125 µg/mL (≈ 0.235 µM)
- MIC50 (Candida parapsilosis): 0.25 µg/mL (≈ 0.47 µM)
- MIC50 (Candida tropicalis): 0.25 µg/mL (≈ 0.47 µM)
- MIC50 (Pichia kudriavzevii): > 64 µg/mL
- MIC50 (Nakaseomyces glabratus): 0.5 µg/mL (≈ 0.939 µM)
- MIC50 (Cryptococcus neoformans [2]): > 64 µg/mL
- MIC50 (Aspergillus fumigatus): > 64 µg/mL
SMILES: C[C@@H](n1ncc2cn(-c3ccc(Cl)c(Cl)c3)nc2c1=O)[C@](O)(Cn1cncn1)c1ccc(F)cc1F

- MIC50 (Candida albicans [1]): < 0.008 µg/mL
- MIC50 (Candida parapsilosis): < 0.008 µg/mL
- MIC50 (Candida tropicalis): < 0.008 µg/mL
- MIC50 (Pichia kudriavzevii): 0.063 µg/mL (≈ 0.132 µM)
- MIC50 (Nakaseomyces glabratus): 0.016 µg/mL (≈ 0.0336 µM)
- MIC50 (Cryptococcus neoformans [2]): < 0.008 µg/mL
- MIC50 (Aspergillus fumigatus): 1 µg/mL (≈ 2.1 µM)
SMILES: C[C@@H](n1ncc2cc(Br)ccc2c1=O)[C@](O)(Cn1cncn1)c1ccc(F)cc1F

- MIC50 (Candida albicans [1]): 0.008 µg/mL (≈ 0.0201 µM)
- MIC50 (Candida parapsilosis): 0.063 µg/mL (≈ 0.159 µM)
- MIC50 (Candida tropicalis): 0.063 µg/mL (≈ 0.159 µM)
- MIC50 (Pichia kudriavzevii): 1 µg/mL (≈ 2.52 µM)
- MIC50 (Nakaseomyces glabratus): 0.031 µg/mL (≈ 0.078 µM)
- MIC50 (Cryptococcus neoformans [2]): 0.063 µg/mL (≈ 0.159 µM)
- MIC50 (Aspergillus fumigatus): 4 µg/mL (≈ 10.1 µM)
SMILES: C[C@@H](n1ncc2ccccc2c1=O)[C@](O)(Cn1cncn1)c1ccc(F)cc1F

- MIC50 (Candida albicans [1]): < 0.008 µg/mL
- MIC50 (Candida parapsilosis): < 0.008 µg/mL
- MIC50 (Candida tropicalis): < 0.008 µg/mL
- MIC50 (Pichia kudriavzevii): 0.125 µg/mL (≈ 0.302 µM)
- MIC50 (Nakaseomyces glabratus): < 0.008 µg/mL
- MIC50 (Cryptococcus neoformans [2]): < 0.008 µg/mL
- MIC50 (Aspergillus fumigatus): 0.25 µg/mL (≈ 0.603 µM)
SMILES: C[C@@H](n1ccc2cc(F)ccc2c1=O)[C@](O)(Cn1cncn1)c1cc(F)ccc1F

- MIC50 (Candida albicans [1]): < 0.008 µg/mL
- MIC50 (Candida parapsilosis): < 0.008 µg/mL
- MIC50 (Candida tropicalis): < 0.008 µg/mL
- MIC50 (Pichia kudriavzevii): 0.125 µg/mL (≈ 0.305 µM)
- MIC50 (Nakaseomyces glabratus): < 0.008 µg/mL
- MIC50 (Cryptococcus neoformans [2]): < 0.008 µg/mL
- MIC50 (Aspergillus fumigatus): 0.5 µg/mL (≈ 1.22 µM)
SMILES: Cc1ccc2c(=O)n([C@H](C)[C@](O)(Cn3cncn3)c3ccc(F)cc3F)ccc2c1

- MIC50 (Candida albicans [1]): < 0.008 µg/mL
- MIC50 (Candida parapsilosis): < 0.008 µg/mL
- MIC50 (Candida tropicalis): < 0.008 µg/mL
- MIC50 (Pichia kudriavzevii): 0.063 µg/mL (≈ 0.131 µM)
- MIC50 (Nakaseomyces glabratus): < 0.008 µg/mL
- MIC50 (Cryptococcus neoformans [2]): < 0.008 µg/mL
- MIC50 (Aspergillus fumigatus): 1 µg/mL (≈ 2.08 µM)
SMILES: C[C@@H](n1ccc2cc(OC(F)(F)F)ccc2c1=O)[C@](O)(Cn1cncn1)c1ccc(F)cc1F

- MIC50 (Candida albicans [1]): < 0.008 µg/mL
- MIC50 (Candida parapsilosis): 0.25 µg/mL (≈ 0.518 µM)
- MIC50 (Candida tropicalis): 0.031 µg/mL (≈ 0.0643 µM)
- MIC50 (Pichia kudriavzevii): > 4 µg/mL
- MIC50 (Nakaseomyces glabratus): < 0.008 µg/mL
- MIC50 (Cryptococcus neoformans [2]): 0.125 µg/mL (≈ 0.259 µM)
- MIC50 (Aspergillus fumigatus): 32 µg/mL (≈ 66.3 µM)
SMILES: C[C@@H](n1cnc2cc(OC(F)(F)F)ccc2c1=O)[C@](O)(Cn1cnnn1)c1ccc(F)cc1F

- MIC50 (Candida albicans [1]): < 0.008 µg/mL
- MIC50 (Candida parapsilosis): < 0.008 µg/mL
- MIC50 (Candida tropicalis): < 0.008 µg/mL
- MIC50 (Pichia kudriavzevii): 0.016 µg/mL (≈ 0.0386 µM)
- MIC50 (Nakaseomyces glabratus): 0.016 µg/mL (≈ 0.0386 µM)
- MIC50 (Cryptococcus neoformans [2]): < 0.008 µg/mL
- MIC50 (Aspergillus fumigatus): 0.25 µg/mL (≈ 0.603 µM)
SMILES: C[C@@H](n1ccc2cc(F)ccc2c1=O)[C@](O)(Cn1cncn1)c1ccc(F)cc1F
